# Values of other authors as cited in patent publication US6231888A, “Local delivery of non steroidal anti inflammatory drugs (NSAIDS) to the colon as a treatment for colonic polyps” (Perio Products Ltd., priority 1998, dated 2001).
# Tests used:
# colonic biopsies = settings: diclofenac-induced colitis
# colorectal cancer = settings: chronic use
# colorectal mucosa = settings: FAP patients
# [1] = tested on: HT-29 colon adenocarcinoma cell line
# colonic polyps = settings: daily dose of 300 mg, taken systemically
# [2] = tested on: sporadic colorectal adenomas; settings: 300 mg or 150 mg daily for one year; polyps 4-12 mm
# [3] = tested on: HT-29 colon adenocarcinoma cells; settings: HT-29 cells
# [4] = tested on: SW480 colon carcinoma cells
structure (smiles),measurement,setting,value
O=C(O)Cc1ccccc1Nc1c(Cl)cccc1Cl [diclofenac],Apoptotic bodies in colonic biopsies,colonic biopsies,increased levels of apoptotic bodies
CC(=O)Oc1ccccc1C(=O)O [aspirin],Reduction in the incidence of colorectal cancer,colorectal cancer,50-70%
Cc1cnc(NC(=O)C2=C(O)c3ccccc3S(=O)(=O)N2C)s1 [Meloxicam],COX-2 inhibition,COX-2,selective COX-2 inhibitor
CC1=C(CC(=O)O)c2cc(F)ccc2/C1=C\c1ccc([S+](C)[O-])cc1 (stereo not shown) [sulindac],COX-2 inhibition,COX-2,weak inhibitor of COX-2
same,Colonic mucosal apoptosis,colorectal mucosa,increased levels of colonic mucosal apoptosis
same,Proliferation,colorectal mucosa,No effects on proliferation
same,Apoptosis,[1],induction of apoptosis
same,Cell proliferation or differentiation,[1],no evidence of cell proliferation or differentiation
same,Number and size of colonic polyps,colonic polyps,significantly decreased
same,COX-1 inhibition,COX-1,mainly exerts an inhibitory effect on COX-1
same,Time of peak plasma concentration,oral tablet,about two
same,Reduction product formed by colonic microflora,colonic microflora,exclusively to sulindac sulfide
same,Regression/progression of sporadic colorectal adenomas,[2],induced regressions and prevented the progression of sporadic colorectal adenomas
same,Regression of adenomatous polyps,sporadic colonic polyps,no similar regression of adenomatous polyps
CSc1ccc(/C=C2/C(C)=C(CC(=O)O)c3cc(F)ccc32)cc1 [sulindac sulfide],COX-2 inhibition,COX-2,potent inhibitor of COX-2
same,Potency in reducing proliferation and inhibiting the cell cycle vs sulindac,[3],six times more potent than sulindac
same,Time within which plasma concentration exceeds that of sulindac,"in vivo, po",four
same,Cell cycle inhibition,[4],induced cell cycle inhibition
CN1C(C(=O)Nc2ccccn2)=C(O)c2ccccc2S1(=O)=O [piroxicam],COX-2 inhibition,COX-2,strong inhibitory effect on COX-2
